Data from patent publication US8822449B2, “Substituted aminoindanes and analogs thereof, and the pharmaceutical use thereof” (Sanofi, priority 2008, dated 2014).

Molecular target: T1, sodium-proton exchanger of subtype 3 (NHE3) (Homo sapiens, UniProt P48764)
T1 construct: expressed in transfected cells
T1 sequence (P48764 26-834): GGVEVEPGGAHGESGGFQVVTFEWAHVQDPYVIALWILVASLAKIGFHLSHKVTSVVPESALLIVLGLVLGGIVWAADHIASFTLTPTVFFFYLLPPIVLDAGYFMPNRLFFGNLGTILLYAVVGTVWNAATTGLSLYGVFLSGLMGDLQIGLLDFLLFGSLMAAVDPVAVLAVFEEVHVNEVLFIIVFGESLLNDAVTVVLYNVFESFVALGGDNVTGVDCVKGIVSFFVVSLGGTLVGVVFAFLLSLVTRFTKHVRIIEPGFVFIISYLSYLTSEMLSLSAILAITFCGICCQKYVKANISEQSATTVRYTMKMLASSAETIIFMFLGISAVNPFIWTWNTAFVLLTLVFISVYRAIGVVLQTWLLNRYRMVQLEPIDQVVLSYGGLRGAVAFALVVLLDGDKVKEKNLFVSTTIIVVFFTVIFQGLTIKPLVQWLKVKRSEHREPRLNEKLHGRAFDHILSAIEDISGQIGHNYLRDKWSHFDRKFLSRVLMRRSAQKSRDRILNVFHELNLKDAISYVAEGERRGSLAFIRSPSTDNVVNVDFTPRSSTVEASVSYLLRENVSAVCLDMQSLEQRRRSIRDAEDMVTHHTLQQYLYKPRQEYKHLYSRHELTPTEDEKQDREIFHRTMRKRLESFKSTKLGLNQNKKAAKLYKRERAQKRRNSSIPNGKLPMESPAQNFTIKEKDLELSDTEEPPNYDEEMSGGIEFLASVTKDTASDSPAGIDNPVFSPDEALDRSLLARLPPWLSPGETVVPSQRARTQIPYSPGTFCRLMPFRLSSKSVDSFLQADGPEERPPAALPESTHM
Test: Recovery of intracellular pH (pHi) after acidification in LAP1 cells stably expressing NHE3 (BCECF fluorescence, FLIPR)
Type: cell-based
Settings: LAP1 cells stably expressing NHE3; pH recovery after acidification; range 1 is % inhibition at 10 μM; read-out: Activity range (inhibitory effect on NHE3)

Row | Compound | IC50 [µM] | inhibition at 10 µM [%]
1 | CS(=O)(=O)c1ccc(OC2c3ccccc3CC2N2CCCC2)c(Cl)c1 (racemic) [Example 265, 1-[rac-trans-(1,2)-1-(2-chloro-4-methanesulfonylphenoxy)indan-2-yl]pyrrolidine] | < 1 | –
2 | N#Cc1ccc(CO[C@H]2c3cc(Cl)cc(Cl)c3C[C@@H]2N2CC[C@@H](O)C2)c(F)c1 [Example 482, 4-[(1S,2S)-4,6-dichloro-2-((R)-3-hydroxypyrrolidin-1-yl)indan-1-yloxymethyl]-3-fluorobenzonitrile] | – | 20 to 50
3 | CS(=O)(=O)c1ccc(O[C@H]2c3cc(Cl)cc(Cl)c3C[C@@H]2N2CCC(N)(C(F)(F)F)C2)cc1 (mixture of isomers) [Example 302, 1-[trans-(1S,2S)-4,6-dichloro-1-(4-methanesulfonylphenoxy)indan-2-yl]-3-trifluoromethylpyrrolidin-3-ylamine] | – | 20 to 50
4 | CS(=O)(=O)c1ccc(O[C@@H]2c3cc(Cl)cc(F)c3C[C@H]2N2CCC[C@@H](N)C2)cc1 (racemic) [Example 93, (R)-1-[rac-trans-(1,2)-6-chloro-4-fluoro-1-(4-methanesulfonylphenoxy)indan-2-yl]piperidin-3-ylamine] | < 1 | –
5 | O=S1(=O)CCCN1c1cccc(O[C@H]2c3cc(Cl)cc(Cl)c3C[C@@H]2N2CC[C@@H](O)C2)c1 [Example 123, (R)-1-{trans-(1S,2S)-4,6-dichloro-1-[3-(1,1-dioxo-1lambda6-isothiazolidin-2-yl)phenoxy]indan-2-yl}pyrrolidin-3-ol] | 1 to 10 | –
6 | CS(=O)(=O)c1ccc(O[C@@H]2c3cc(F)cc(Cl)c3C[C@H]2N2CCC[C@@H](N)C2)cc1 (racemic) [Example 91, (R)-1-[rac-trans-(1,2)-4-chloro-6-fluoro-1-(4-methanesulfonylphenoxy)indan-2-yl]piperidin-3-ylamine] | < 1 | –
7 | Cc1noc(C)c1-c1cc(F)ccc1O[C@H]1c2ccccc2C[C@@H]1N1CCCC1 [Example 503, 4-[5-fluoro-2-(trans-(1S,2S)-2-pyrrolidin-1-ylindan-1-yloxy)phenyl]-3,5-dimethylisoxazole] | – | 20 to 50
8 | N#Cc1c(F)cccc1O[C@@H]1c2ccccc2C[C@H]1N1CCC(CN)C1 (mixture of isomers) [Example 374, 2-[rac-trans-(1,2)-2-(3-aminomethylpyrrolidin-1-yl)indan-1-yloxy]-6-fluorobenzonitrile] | 1 to 10 | –
9 | N[C@@H]1CCCN([C@H]2Cc3c(Cl)cc(Cl)cc3[C@@H]2Oc2ccc(-n3ccnc3)cc2)C1 [Example 98, (R)-1-[trans-(1S,2S)-4,6-dichloro-1-(4-imidazol-1-ylphenoxy)indan-2-yl]piperidin-3-ylamine] | < 1 | –
10 | O=c1ocnn1-c1ccc(O[C@H]2c3cc(Cl)cc(Cl)c3C[C@@H]2N2CC[C@@H](O)C2)cc1 [Example 735, 3-{4-[trans-(1S,2S)-4,6-Dichloro-2-((R)-3-hydroxy-pyrrolidin-1-yl)-indan-1-yloxy]-phenyl}-3H-[1,3,4]oxadiazol-2-one] | 1 to 10 | –
11 | CC(=O)Nc1cccc(O[C@@H]2c3cc(Cl)cc(F)c3C[C@H]2N2CCCC2)c1 (racemic) [Example 660, N-[3-(rac-trans-(1,2)-6-chloro-4-fluoro-2-pyrrolidin-1-ylindan-1-yloxy)phenyl]acetamide] | 1 to 10 | –
12 | Cn1ccn(-c2cccc(O[C@H]3c4cc(Cl)cc(Cl)c4C[C@@H]3N3CCNCC3)c2)c1=O (racemic) [Example 257, 1-[3-(rac-trans-(1,2)-4,6-dichloro-2-piperazin-1-ylindan-1-yloxy)phenyl]-3-methyl-1,3-dihydroimidazol-2-one] | < 1 | –
13 | CN(c1ccc(O[C@H]2c3cc(Cl)cc(Cl)c3C[C@@H]2N2CC[C@@H](O)C2)cc1)S(C)(=O)=O [Example 698, N-{4-[(1S,2S)-4,6-dichloro-2-((R)-3-hydroxypyrrolidin-1-yl)indan-1-yloxy]phenyl}-N-methylmethanesulfonamide] | < 1 | –
14 | CN(C)[C@@H]1CCCN([C@H]2Cc3c(Cl)cc(Cl)cc3[C@@H]2Oc2ccc(S(C)(=O)=O)cc2)C1 [Example 224, {(R)-1-[trans-(1S,2S)-4,6-dichloro-1-(4-methanesulfonylphenoxy)indan-2-yl]piperidin-3-yl}-dimethylamine] | < 1 | –
15 | Cc1cn(-c2ccc(O[C@H]3c4cc(Cl)cc(Cl)c4C[C@@H]3N3CC[C@@H](O)C3)c(F)c2)c(C)n1 [Example 727, (R)-1-{trans-(1S,2S)-4,6-Dichloro-1-[4-(2,4-dimethyl-imidazol-1-yl)-2-fluoro-phenoxy]-indan-2-yl}-pyrrolidin-3-ol] | < 1 | –
16 | Cc1nc2cc(O[C@@H]3c4ccccc4C[C@H]3N3CCC(CN)C3)ccc2s1 (mixture of isomers) [Example 608, C-{1-[rac-trans-(1,2)-1-(2-methylbenzothiazol-5-yloxy)indan-2-yl]pyrrolidin-3-yl}methylamine] | 1 to 10 | –
17 | COc1cccc(F)c1O[C@@H]1c2ccccc2C[C@H]1N1CCC(CN)C1 (mixture of isomers) [Example 605, C-{1-[rac-trans-(1,2)-1-(2-fluoro-6-methoxyphenoxy)indan-2-yl]pyrrolidin-3-yl}methylamine] | 1 to 10 | –
18 | Cc1c(Cl)ccc(O[C@@H]2c3ccccc3C[C@H]2N2C[C@H]3CNC[C@H]3C2)c1Cl (racemic) [Example 4, 2-[rac-trans-(1,2)-1-(2,4-dichloro-3-methylphenoxy)indan-2-yl]octahydropyrrolo[3,4-c]pyrrole] | 1 to 10 | –
19 | CN(C)C[C@H]1Cc2c(Cl)cc(Cl)cc2[C@@H]1Oc1ccc(S(C)(=O)=O)cc1 (racemic) [Example 217, [rac-trans-(1,2)-4,6-dichloro-1-(4-methanesulfonylphenoxy)indan-2-ylmethyl]dimethylamine] | – | 20 to 50
20 | COc1cccc(F)c1O[C@@H]1c2ccccc2C[C@H]1N1CCC(N)C1 (mixture of isomers) [Example 266, 1-[rac-trans-(1,2)-1-(2-fluoro-6-methoxyphenoxy)indan-2-yl]pyrrolidin-3-ylamine] | 1 to 10 | –
21 | Cc1noc(C)c1-c1cc(O[C@H]2c3ccccc3C[C@@H]2N2CCCC2)ccc1F [Example 489, 4-[2-fluoro-5-(trans-(1S,2S)-2-pyrrolidin-1-ylindan-1-yloxy)phenyl]-3,5-dimethylisoxazole] | – | 20 to 50

Other lines, results leading:

Row | IC50 [µM] | inhibition at 10 µM [%] | Compound
22 | 1 to 10 | – | CCOC(=O)c1ncoc1-c1ccc(O[C@H]2c3ccccc3CC[C@@H]2N2CCC[C@H](N)C2)cc1 (racemic) [Example 584, 5-{4-[rac-trans-(1,2)-2-((S)-3-aminopiperidin-1-yl)-1,2,3,4-tetrahydronaphthalen-1-yloxy]phenyl}oxazole-4-carboxylic acid ethyl ester]
23 | – | 20 to 50 | N[C@@H]1CCCN([C@H]2CCc3ccccc3[C@@H]2Oc2ccc(N3CCNCC3)cc2)C1 (racemic) [Example 75, (R)-1-[rac-trans-(1,2)-1-(4-piperazin-1-ylphenoxy)-1,2,3,4-tetrahydronaphthalen-2-yl]piperidin-3-ylamine]
24 | – | 20 to 50 | N[C@H]1CCCN([C@H]2CCc3ccccc3[C@@H]2Oc2ccc(Cl)nc2)C1 (racemic) [Example 190, (S)-1-[rac-trans-(1,2)-1-(6-chloropyridin-3-yloxy)-1,2,3,4-tetrahydronaphthalen-2-yl]piperidin-3-ylamine]
25 | – | 20 to 50 | COCCc1ccc(O[C@H]2c3ccccc3CC[C@@H]2N2CCC[C@@H](N)C2)cc1 (racemic) [Example 115, (R)-1-{rac-trans-(1,2)-1-[4-(2-methoxyethyl)phenoxy]-1,2,3,4-tetrahydronaphthalen-2-yl}piperidin-3-ylamine]
26 | < 1 | – | Cc1nc2cc(O[C@@H]3c4ccccc4C[C@H]3N3CCC[C@@H](N)C3)ccc2s1 (racemic) [Example 47, (R)-1-[rac-trans-(1,2)-1-(2-methylbenzothiazol-5-yloxy)indan-2-yl]piperidin-3-ylamine]
27 | 1 to 10 | – | NC(=O)c1ccc(O[C@@H]2c3ccccc3C[C@H]2N2CCC[C@H](N)C2)cc1 (racemic) [Example 537, 4-[rac-trans-(1,2)-2-((S)-3-aminopiperidin-1-yl)indan-1-yloxy]benzamide]
28 | – | 20 to 50 | CC(=O)Nc1cccc(O[C@H]2c3ccccc3CC[C@@H]2N2CCC[C@H](N)C2)c1 (racemic) [Example 684, N-{3-[rac-trans-(1,2)-2-((S)-3-aminopiperidin-1-yl)-1,2,3,4-tetrahydronaphthalen-1-yloxy]phenyl}acetamide]
29 | 1 to 10 | – | N[C@H]1CCCN([C@@H]2Cc3ccccc3[C@H]2Oc2ccc(-n3cncn3)cc2)C1 (racemic) [Example 172, (S)-1-[rac-trans-(1,2)-1-(4-[1,2,4]triazol-1-ylphenoxy)indan-2-yl]piperidin-3-ylamine]
30 | – | 20 to 50 | N[C@H]1CCCN([C@H]2CCc3ccccc3[C@@H]2Oc2cccc(Cl)c2)C1 (racemic) [Example 165, (S)-1-[rac-trans-(1,2)-1-(3-chlorophenoxy)-1,2,3,4-tetrahydronaphthalen-2-yl]piperidin-3-ylamine]
